Laboratory results: patent publication US5240927A, “Benzo[β]thiophen-3-yl piperazines as antipsychotic agents” (Hoechst-Roussel Pharmaceuticals Incorporated, priority 1992, dated 1993)
Read-outs that look alike come from different tables or passages of the source.

Test system: apomorphine-induced climbing
Test: Climbing Mice Assay (block of apomorphine-induced climbing)
Type: in vivo, CK-1 male mice
Conditions: Mus musculus, ip, read-out: Antipsychotic Activity (Climbing Mice Assay) ED50
Procedure: The subject CK-1 male mice (23-27 grams) are group-housed under standard laboratory conditions. The mice are individually placed in wire mesh stick cages (4"×4" 10) and are allowed one hour for adaptation and exploration of the new environment.
For evaluation of climbing, three readings are taken at 10, 20 and 30 minutes after apomorphine administration according to the following scale: […]
Mice consistently climbing before the injection of apormorphine are discarded.
With full-developed apomorphine climbing, the animals are hanging onto the cage walls, rather motionless, over longer periods of time. By contrast, climbs due to mere motor stimulation usually last only a few seconds.
The climbing scores are individually totaled (maximal score; 6 per mouse over three readings) and the total score of the control group (vehicle intraperitioneally-apomorphine subcutaneously) is set to 100%.

Row | SMILES | ED50 | ED50 (CK-1 male mice, compound i.p. 30 minutes prior to apomorphine 1.5 mg/kg s.c., readings at 10, 20 and 30 minutes, linear regression)
1 | O=C(CCCN1CCC(O)(c2ccc(Cl)cc2)CC1)c1ccc(F)cc1 [Haloperidol] | 0.33 mg/kg | 
2 | COc1cc(C(C)=O)ccc1OCCCN1CCN(c2csc3cc(F)ccc23)CC1 [1-[4-[3-[4-(6-Fluorobenzo[b]thiophen-3-yl)-1-piperazinyl]propoxy]-3-methoxyphenyl]ethanone] |  | 1.42 mg/kg
